The text below walks through data of US12172988B2, “Anticancer and antifungal splice modulators” (priority 2021, dated 2024).

In one data set the test system is DNAJB1. The data set is described as follows: qPCR splicing analysis, DNAJB1 intron retention. The data set is classed as cell-based, human. Conditions: for DNAJB1 intron retention: HCT116, 24 h, 100, 250, 500 nM, compared to 1. On the procedure:
(§1) HCT116 tumor cells were treated with each analogue at 20 times the G150 value (Table 12) for 4 hours and then cellular RNA was isolated and purified for qPCR. Primers were designed to evaluate intron retention or exon skipping, direct responses to splice modulator treatment. Genes evaluated included those involved in splicing regulation (SF3A1, SF3A3, SF3B1, SF3B2), apoptosis (MCL-1L), protein folding (DNAJB1), and cell cycle regulation (AURKA, PLK-1) relative to the unspliced control GAPDH. For alternative splicing regulator (SF2), primers were designed to evaluate gene expression, which changes in response splice modulator treatment for SF2 relative to the unspliced control GAPDH. (−) denotes untreated cells.
as §1, with “analogues” for “each analogue”, “100 nM (light grey), 250 nM (grey), or 500 nM (black)” for “20 times the G150 value (Table 12)”, “24 h” for “4 hours”, “(MCL-1L), and” for “(MCL-1L),”, “(DNAJB1),” for “(DNAJB1), and cell cycle regulation (AURKA, PLK-1)”, “(—)” for “(−)”
(§2) Next, we turned our efforts to explore the ability of these analogues to modulate splicing. […] We treated cells for 4 h so that we could evaluate early changes in splicing activity, and then cellular RNA was isolated and purified for analyses by qPCR (FIG. 14). Most importantly, none of the concentrations tested led to significant changes in cell viability, ensuring that changes in gene expression were not due to cell death.
(§3) For these studies, we evaluated the expression of genes involved in splicing regulation (SF3A1, SF3A3, SF3B1, SF3B2), apoptosis (MCL-1L), protein folding (DNAJB1), and cell cycle regulation (AURKA, PLK-1) relative to the unspliced control GAPDH. Primers were designed to evaluate intron retention or exon skipping, direct responses to splice modulator treatment. The master splicing regulator alternative splicing factor (SF2) was also evaluated, with the primers for this gene designed to evaluate overall gene expression, which changes in response to splice modulator treatment.
From this 4 h study (FIG. 14), a small set of analogs (1, 1b, 1g, 1d, 1e, 1i and 1j) were selected to evaluate if effects on splicing when presented for a longer 24 h period. […] Using identical procedures as that used for 4 h, HCT116 cells were treated with three concentrations (100 nM, 250 nM and 500 nM) of each analog for 24 h. Multiple concentrations were used as a means to check further validate the use of the GI50 concentration in our prior study (FIG. 14). As before, none of the concentrations tested led to significant changes in cell viability over the 24-hour time window, ensuring that changes in gene expression were not due to cell death.
Cells were treated with 1 or 1a-1j in media (McCoy's 5a (Life Technologies) supplemented with 10% FBS, 2 mM L-glutamine, and 100 U mL^−1 of penicillin and 100 μg mL^−1 of streptomycin 0.5% DMSO) for 4 h or 24 h. Untreated cells were considered were used as negative control. Total RNA was isolated using mirVana miRNA isolation kit (Life Technologies). […]

In the next data set the test system is SF2. The data set is described as follows: qPCR gene expression of alternative splicing factor SF2. The data set is classed as cell-based, human. Particulars: for SF2 RNA expression: HCT116, 24 h, 100, 250, 500 nM, compared to 1. On the procedure: as §1
as §1, with “analogues” for “each analogue”, “100 nM (light grey), 250 nM (grey), or 500 nM (black)” for “20 times the G150 value (Table 12)”, “24 h” for “4 hours”, “(MCL-1L), and” for “(MCL-1L),”, “(DNAJB1),” for “(DNAJB1), and cell cycle regulation (AURKA, PLK-1)”, “(—)” for “(−)”
as §2, §3
From this 4 h study (FIG. 14), a small set of analogs (1, 1b, 1g, 1d, 1e, 1i and 1j) were selected to evaluate if effects on splicing when presented for a longer 24 h period. […] Using identical procedures as that used for 4 h, HCT116 cells were treated with three concentrations (100 nM, 250 nM and 500 nM) of each analog for 24 h. […]
For orientation: Quantitative PCR measures a nucleic acid by following its amplification.

For data set [1] the following is noted: compared with C16-C17 isomers / pladienolides, cited from earlier work.
The conditions of data set [2]: in vivo; cited from earlier work.
The test system of a further data set is SF3A3. The data set is described as follows: qPCR splicing analysis, SF3A3 intron retention. The data set is classed as cell-based, human. Particulars: HCT116, 24 h, 100, 250, 500 nM. As for the experimental part:
as §1
HCT116 tumor cells were treated with analogues at 100 nM (light grey), 250 nM (grey), or 500 nM (black) for 24 h and then cellular RNA was isolated and purified for qPCR. […] Genes evaluated included those involved in splicing regulation (SF3A1, SF3A3, SF3B1, SF3B2), apoptosis (MCL-1L), and protein folding (DNAJB1), relative to the unspliced control GAPDH. […]
For these studies, we evaluated the expression of genes involved in splicing regulation (SF3A1, SF3A3, SF3B1, SF3B2), apoptosis (MCL-1L), protein folding (DNAJB1), and cell cycle regulation (AURKA, PLK-1) relative to the unspliced control GAPDH. […]

The subject of a further data set is AURKA. As to the kind of experiment: qPCR splicing analysis, AURKA exon skipping / expression. The data set is classed as cell-based, human. Particulars: HCT116, 24 h, 100, 250, 500 nM. As for the experimental part: as §1
Next, we turned our efforts to explore the ability of these analogues to modulate splicing. […] We treated cells for 4 h so that we could evaluate early changes in splicing activity, and then cellular RNA was isolated and purified for analyses by qPCR (FIG. 14). […]
For these studies, we evaluated the expression of genes involved in splicing regulation (SF3A1, SF3A3, SF3B1, SF3B2), apoptosis (MCL-1L), protein folding (DNAJB1), and cell cycle regulation (AURKA, PLK-1) relative to the unspliced control GAPDH. […] The master splicing regulator alternative splicing factor (SF2) was also evaluated, with the primers for this gene designed to evaluate overall gene expression, which changes in response to splice modulator treatment. […]
Cells were treated with 1 or 1a-1j in media (McCoy's 5a (Life Technologies) supplemented with 10% FBS, 2 mM L-glutamine, and 100 U mL^−1 of penicillin and 100 μg mL^−1 of streptomycin 0.5% DMSO) for 4 h or 24 h. […] The amount of unspliced RNA for different genes was determined using Power SYBR Green PCR master mix (Applied Biosystems) by qPCR using specific primers for each gene. qPCR using 2.5 μM of each primer was performed on 5 ng of the obtained cDNA. qPCR conditions were as follows: 95° C. for 10 min for one cycle, then 95° C. for 10 min for one cycle, then 95° C. for 30 s, 55° C. for 60 s, 72° C. for 60 s, for 40 cycles using the MXPro. […]

The structures appear in SMILES notation. Where two headings read alike, the source gives them in different places.

Regarding `CC[C@H](OC)[C@@H](C)[C@H]1O[C@@H]1[C@@H](O)[C@H](C)/C=C/C=C(\C)[C@H]1OC(=O)C[C@H](O)CC[C@@](C)(O)[C@@H](OC(C)=O)/C=C/[C@@H]1C` [Analog 1d, 17S-FD-895], in the data set with DNAJB1, the DNAJB1 intron retention entry was “decreased level of intron retention”. Further, the “SF2 RNA expression” value with SF2 is reported as “decreased effect at reducing”. For the same compound, the “stability (words)” value in data set [1] is “increased stability”; in data set [1] (listed as 17S-FD-895), “metabolically-improved”. In addition, in data set [2], the MTD is on record as 4 mg/kg.
In the case of `CC[C@H](OC)[C@@H](C)[C@H]1O[C@@H]1[C@@H](O)[C@H](C)/C=C/C=C(\C)[C@H]1OC(=O)C[C@@H](O)CC[C@@](C)(O)[C@@H](OC(C)=O)/C=C/[C@@H]1C` [Analog 1g, 3S,17S-FD-895], in the data set with DNAJB1 (HCT116, 4 h, 20 times GI50, qPCR relative to GAPDH), the “DNAJB1 intron 2 retention (level of intron retention)” value is given as “highest level of intron retention”. Also, in the data set on DNAJB1, the DNAJB1 intron retention result was “loss in intron retention”. Also, the SF3A3 intron retention result with SF3A3 is “concentration dependent increase intron retention”. Also, in the data set on AURKA, the AURKA expression entry was “altered the expression of AURKA comparable to 1”. Besides, the “down regulating the expression of SF2 RNA” value with SF2 (HCT116, 4 h, 20 times GI50, qPCR) was “highest efficacy”. Besides, the “SF2 RNA expression” value with SF2 is recorded as “reduced ability to inhibit SF2 RNA expression”.
With `CC[C@@H](OC)[C@H](C)[C@H]1O[C@@H]1[C@@H](O)[C@H](C)/C=C/C=C(\C)[C@H]1OC(=O)C[C@H](O)CC[C@@](C)(O)[C@@H](OC(C)=O)/C=C/[C@@H]1C` [Analog 1j, 17S,20S,21R-FD-895], in the data set with AURKA, the AURKA expression result is on record as “reducing the expression of AURKA at 500 nM”.
